Values after ≈ are worked out from the molar mass of the structure shown.
How the values were obtained:
[1] = tested on: Streptococcus pneumoniae; test: Antimicrobial activity against Streptococcus pneumoniae by broth dilution method; format: functional
[2] = tested on: Enterococcus faecalis; test: Antimicrobial activity against vancomycin-susceptible Enterococcus faecalis by broth dilution method; format: functional
[3] = tested on: Staphylococcus aureus; test: Antimicrobial activity against methicillin-susceptible Staphylococcus aureus by broth dilution method; format: functional
[4] = tested on: Streptococcus viridans; test: Antimicrobial activity against Streptococcus viridans by broth dilution method; format: functional
[5] = tested on: Haemophilus influenzae; test: Antimicrobial activity against Haemophilus influenzae by broth dilution method; format: functional
[6] = tested on: Staphylococcus aureus; test: Antimicrobial activity against vancomycin-nonsusceptible Staphylococcus aureus by broth dilution method; format: functional
[7] = tested on: Staphylococcus sp.; test: Antimicrobial activity against methicillin-susceptible coagulase-negative Staphylococcus by broth dilution method; format: functional
[8] = tested on: Haemophilus influenzae; test: Antimicrobial activity against beta-lactamase negative Haemophilus influenzae by broth dilution method; format: functional
[9] = tested on: Haemophilus influenzae; test: Antimicrobial activity against beta-lactamase positive Haemophilus influenzae by broth dilution method; format: functional
[10] = tested on: Streptococcus pneumoniae; test: Antimicrobial activity against penicillin-intermediate Streptococcus pneumoniae by broth dilution method; format: functional
[11] = tested on: Enterococcus faecium; test: Antimicrobial activity against vancomycin-resistant Enterococcus faecium by broth dilution method; format: functional
[12] = tested on: Listeria monocytogenes; test: Antimicrobial activity against Listeria monocytogenes by broth dilution method; format: functional
[13] = tested on: Staphylococcus aureus; test: Antimicrobial activity against linezolid-resistant Staphylococcus aureus by broth dilution method; format: functional
[14] = tested on: Staphylococcus aureus; test: Antimicrobial activity against Staphylococcus aureus by broth dilution method; format: functional
[15] = tested on: Staphylococcus sp.; test: Antimicrobial activity against methicillin-resistant coagulase-negative Staphylococcus by broth dilution method; format: functional
[16] = tested on: Haemophilus influenzae; test: Antimicrobial activity against ampicillin-nonsusceptible beta-lactamase negative Haemophilus influenzae by broth dilution method; format: functional
[17] = tested on: Corynebacterium jeikeium; test: Antimicrobial activity against Corynebacterium jeikeium by broth dilution method; format: functional
[18] = tested on: Staphylococcus aureus; test: Antimicrobial activity against methicillin-resistant Staphylococcus aureus by broth dilution method; format: functional; conditions: Staphylococcus aureus
[19] = tested on: Streptococcus pneumoniae; test: Antimicrobial activity against penicillin-susceptible Streptococcus pneumoniae by broth dilution method; format: functional
[20] = tested on: Enterococcus faecium; test: Antimicrobial activity against vancomycin-susceptible Enterococcus faecium by broth dilution method; format: functional
[21] = tested on: Staphylococcus sp.; test: Antimicrobial activity against Staphylococcus sp. by broth dilution method; format: functional
[22] = tested on: Enterococcus sp.; test: Antimicrobial activity against Enterococcus by broth dilution method; format: functional
[23] = tested on: Streptococcus pneumoniae; test: Antimicrobial activity against penicillin-resistant Streptococcus pneumoniae by broth dilution method; format: functional
[24] = tested on: Streptococcus sp; test: Antimicrobial activity against streptococcal sp. by broth dilution method
[25] = tested on: Moraxella catarrhalis; test: Antimicrobial activity against Moraxella catarrhalis by broth dilution method; format: functional
[26] = tested on: Enterococcus faecalis; test: Antimicrobial activity against vancomycin-resistant Enterococcus faecalis by broth dilution method; format: functional

## CC(=O)NC[C@H]1CN(c2ccc(N3CCOCC3)c(F)c2)C(=O)O1 [LINEZOLID]
[1]
  MBC50: 4 µg/mL (≈ 11.9 µM)
  MBC90: 8 µg/mL (≈ 23.7 µM)
[1]; Streptococcus pneumoniae
  MBC: > 2 µg/mL
  MIC50: 1 µg/mL (≈ 2.96 µM)
  MIC90: 2 µg/mL (≈ 5.93 µM)
[2]
  MBC50: >8 µg/mL
  MBC90: >8 µg/mL
[2]; Enterococcus faecalis
  MBC: > 8 µg/mL
  MIC50: 2 µg/mL (≈ 5.93 µM)
  MIC90: 2 µg/mL (≈ 5.93 µM)
[3]
  MBC50: >8 µg/mL
  MBC90: >8 µg/mL
[3]; Staphylococcus aureus
  MBC: > 4 µg/mL
  MIC50: 2 µg/mL (≈ 5.93 µM)
  MIC90: 2 µg/mL (≈ 5.93 µM)
[4]
  MIC50: 2 µg/mL (≈ 5.93 µM)
  MIC90: 2 µg/mL (≈ 5.93 µM)
[5]
  MBC50: >8 µg/mL
  MBC90: >8 µg/mL
[5]; Haemophilus influenzae
  MBC: > 8 µg/mL
  MIC50: > 8 µg/mL
  MIC90: > 8 µg/mL
[6]
  MBC50: 2 µg/mL (≈ 5.93 µM)
  MBC90: 4 µg/mL (≈ 11.9 µM)
[6]; Staphylococcus aureus
  MBC: 2 µg/mL (≈ 5.93 µM)
  MIC50: 2 µg/mL (≈ 5.93 µM)
  MIC90: 4 µg/mL (≈ 11.9 µM)
[7]
  MBC50: >8 µg/mL
  MBC90: >8 µg/mL
[7]; Staphylococcus sp.
  MBC: > 2 µg/mL
  MIC50: 1 µg/mL (≈ 2.96 µM)
  MIC90: 2 µg/mL (≈ 5.93 µM)
[8]
  MBC50: >8 µg/mL
  MBC90: >8 µg/mL
[8]; Haemophilus influenzae
  MBC: > 8 µg/mL
  MIC50: > 8 µg/mL
  MIC90: > 8 µg/mL
[9]
  MBC50: >8 µg/mL
  MBC90: >8 µg/mL
[9]; Haemophilus influenzae
  MBC: > 8 µg/mL
  MIC: > 8 µg/mL
  MIC50: > 8 µg/mL
[9]; Haemophilus influenzae, read-out: MIC90
  MIC90: > 8 µg/mL
[10]
  MBC50: 4 µg/mL (≈ 11.9 µM)
  MBC90: 8 µg/mL (≈ 23.7 µM)
[10]; Streptococcus pneumoniae
  MBC: > 2 µg/mL
  MIC50: 1 µg/mL (≈ 2.96 µM)
  MIC90: 2 µg/mL (≈ 5.93 µM)
[11]
  MBC: > 4 µg/mL
  MIC50: 2 µg/mL (≈ 5.93 µM)
  MIC90: 4 µg/mL (≈ 11.9 µM)
[12]
  MIC: 2 µg/mL (≈ 5.93 µM)
  MIC50: 2 µg/mL (≈ 5.93 µM)
  MIC90: 2 µg/mL (≈ 5.93 µM)
[13]
  MBC: > 8 µg/mL
  MIC50: > 8 µg/mL
  MIC90: > 8 µg/mL
[14]
  MBC50: 8 µg/mL (≈ 23.7 µM)
  MBC90: >8 µg/mL
[14]; Staphylococcus aureus
  MBC: > 2 µg/mL
  MIC50: 2 µg/mL (≈ 5.93 µM)
  MIC90: 2 µg/mL (≈ 5.93 µM)
[15]
  MBC: > 8 µg/mL
  MIC50: 1 µg/mL (≈ 2.96 µM)
  MIC90: 4 µg/mL (≈ 11.9 µM)
[16]
  MBC50: >8 µg/mL
  MBC90: >8 µg/mL
[16]; Haemophilus influenzae
  MBC: > 8 µg/mL
  MIC: > 8 µg/mL
  MIC50: > 8 µg/mL
  MIC90: > 8 µg/mL
[17]
  MIC50: 1 µg/mL (≈ 2.96 µM)
  MIC90: 1 µg/mL (≈ 2.96 µM)
[18]
  MIC50: 2 µg/mL (≈ 5.93 µM)
  MIC90: 4 µg/mL (≈ 11.9 µM)
[19]
  MBC50: 4 µg/mL (≈ 11.9 µM)
  MBC90: 8 µg/mL (≈ 23.7 µM)
[19]; Streptococcus pneumoniae
  MBC: > 2 µg/mL
  MIC50: 1 µg/mL (≈ 2.96 µM)
  MIC90: 2 µg/mL (≈ 5.93 µM)
[20]
  MBC50: >8 µg/mL
  MBC90: >8 µg/mL
[20]; Enterococcus faecium
  MBC: > 8 µg/mL
  MIC: 2 µg/mL (≈ 5.93 µM)
  MIC50: 2 µg/mL (≈ 5.93 µM)
  MIC90: 2 µg/mL (≈ 5.93 µM)
[21]
  MBC50: 8 µg/mL (≈ 23.7 µM)
  MBC90: >8 µg/mL
[21]; Staphylococcus sp.
  MBC: > 2 µg/mL
  MIC50: 2 µg/mL (≈ 5.93 µM)
  MIC90: 2 µg/mL (≈ 5.93 µM)
[22]
  MBC50: >8 µg/mL
  MBC90: >8 µg/mL
[22]; Enterococcus sp.
  MBC: > 4 µg/mL
  MIC50: 2 µg/mL (≈ 5.93 µM)
  MIC90: 2 µg/mL (≈ 5.93 µM)
[23]
  MBC: 4 µg/mL (≈ 11.9 µM)
  MIC50: 1 µg/mL (≈ 2.96 µM)
  MIC90: 2 µg/mL (≈ 5.93 µM)
[24]
  MBC50: 8 µg/mL (≈ 23.7 µM)
  MBC90: >8 µg/mL
[24]; Streptococcus sp.
  MBC: > 2 µg/mL
  MIC50: 1 µg/mL (≈ 2.96 µM)
  MIC90: 2 µg/mL (≈ 5.93 µM)
[25]
  MIC: 8 µg/mL (≈ 23.7 µM)
  MIC50: 8 µg/mL (≈ 23.7 µM)
  MIC90: 8 µg/mL (≈ 23.7 µM)
[26]
  MIC50: 2 µg/mL (≈ 5.93 µM)
  MIC90: 2 µg/mL (≈ 5.93 µM)
